Reference: ChEMBL document CHEMBL5236619, “Design and Optimization of 1H-1,2,3-Triazole-4-carboxamides as Novel, Potent, and Selective Inverse Agonists and Antagonists of PXR” (J Med Chem, 2022)

Experiments:
[1] = target: T1, PXR (NR1I2) ligand binding domain (Homo sapiens, UniProt O75469); test: Inhibition of BODIPY FL vindoline binding to recombinant human GST-tagged PXR LBD (111 to 434 residues) expressed in baculovirus infected insect cells at 10 uM incubated for 1 mins under shaking condition followed by 60 mins under dark condition by TR-FRET assay relative to control; conditions: probe BODIPY FL vindoline, time 61 min
T1 sequence (O75469 whole entry): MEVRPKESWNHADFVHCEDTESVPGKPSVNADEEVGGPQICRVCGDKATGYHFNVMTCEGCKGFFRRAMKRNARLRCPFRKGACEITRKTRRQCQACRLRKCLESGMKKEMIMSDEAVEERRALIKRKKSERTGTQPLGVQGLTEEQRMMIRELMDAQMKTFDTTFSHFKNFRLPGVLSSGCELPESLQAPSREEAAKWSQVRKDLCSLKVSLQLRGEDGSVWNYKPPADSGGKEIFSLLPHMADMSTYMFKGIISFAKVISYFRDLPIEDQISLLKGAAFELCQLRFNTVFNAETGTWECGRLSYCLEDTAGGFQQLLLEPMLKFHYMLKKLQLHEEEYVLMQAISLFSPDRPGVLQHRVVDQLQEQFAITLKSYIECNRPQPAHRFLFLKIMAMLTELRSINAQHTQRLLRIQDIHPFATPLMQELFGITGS

[2] = target: T2, Nuclear receptor subfamily 1 group I member 2 (Homo sapiens, UniProt O75469); test: Agonist activity at human PXR in human HepG2 cells co-expressing luciferase gene under control of CYP3A4 promoter assessed as transcriptional activation incubated for 24 hrs by luminescence based analysis
T2 sequence (O75469 whole entry): T1 sequence (O75469 whole entry)

[3] = target: T2, Nuclear receptor subfamily 1 group I member 2; test: Agonist activity at human PXR in human HepG2 cells co-expressing luciferase gene under control of CYP3A4 promoter assessed as transcriptional activation at 10 uM incubated for 24 hrs by luminescence based analysis relative to control
[4] = target: T2, Nuclear receptor subfamily 1 group I member 2; test: Inverse agonist activity at human PXR in human HepG2 cells co-expressing luciferase gene under control of CYP3A4 promoter assessed as inhibition in receptor basal activity at 30 uM incubated for 24 hrs by luminescence based analysis; conditions: hepg2, 24 h
[5] = target: T2, Nuclear receptor subfamily 1 group I member 2; test: Antagonist activity at human PXR in human HepG2 cells co-expressing luciferase gene under control of CYP3A4 promoter assessed as inhibition in rifampicin-induced receptor activation at 30 uM incubated for 24 hrs by luminescence based analysis; format: cell-based; conditions: hepg2, 24 h
PXR (NR1I2) [6] = target: T3, PXR (NR1I2) (Homo sapiens, UniProt O75469); test: Antagonist activity at human PXR in human HepG2 cells co-expressing luciferase gene under control of CYP3A4 promoter assessed as inhibition in rifampicin-induced receptor activation at 10 uM incubated for 24 hrs by luminescence based analysis relative to control; format: cell-based
T3 sequence (O75469 whole entry): T1 sequence (O75469 whole entry)

[7] = target: T2, Nuclear receptor subfamily 1 group I member 2; test: Agonist activity at human PXR in human HepG2 cells co-expressing luciferase gene under control of CYP3A4 promoter assessed as transcriptional activation at 30 uM incubated for 24 hrs by luminescence based analysis; format: cell-based; conditions: hepg2, 24 h
[8] = target: T2, Nuclear receptor subfamily 1 group I member 2; test: Inverse agonist activity at human PXR in human HepG2 cells co-expressing luciferase gene under control of CYP3A4 promoter assessed as inhibition of receptor basal activity incubated for 24 hrs by luminescence based analysis; format: cell-based
PXR (NR1I2) [9] = target: T3, PXR (NR1I2); test: Inverse agonist activity at human PXR in human HepG2 cells co-expressing luciferase gene under control of CYP3A4 promoter assessed as inhibition in receptor basal activity at 10 uM incubated for 24 hrs by luminescence based analysis relative to control; format: cell-based
[10] = target: T2, Nuclear receptor subfamily 1 group I member 2; test: Inhibition of BODIPY FL vindoline binding to recombinant human GST-tagged PXR LBD (111 to 434 residues) expressed in baculovirus infected insect cells incubated for 1 mins under shaking condition followed by 60 mins under dark condition by TR-FRET assay; conditions: human, 1.017 h; time 61 min

| SMILES | inhibition at 1.017 h, 10 µM [1] | Activity [7] | inhibition at 24 h, 10 µM (PXR (NR1I2) [9]) | other results |
| --- | --- | --- | --- | --- |
| COc1ccc(OC)c(-n2nnc(C(=O)Nc3ccc(NC(C)=O)c(C(C)(C)C)c3)c2C)c1 | 65% |  |  | EC50 [2]: 2 µM; activity at 24 h, 10 µM [3]: 50%; INH [4]: Not Active; inhibition (INH) [5]: Not Active |
| CCCCN(CCCC)c1cc(NC(=O)c2nnn(-c3cc(OC)ccc3OC)c2C)cc(C(C)(C)C)c1 |  | Not Active |  | inhibition at 24 h, 10 µM (PXR (NR1I2) [6]): 82% |
| COc1ccc(OC)c(-n2nnc(C(=O)Nc3cc(C(C)(C)C)ccc3OCCN(C)C)c2C)c1 | 87% | Not Active |  | IC50 [8]: 1.8 µM |
| CCCCOc1ccc(C(C)(C)C)cc1NC(=O)c1nnn(-c2cc(OC)ccc2OC)c1C | 90% | Not Active | 89% |  |
| CCOc1ccc(C(C)(C)C)cc1NC(=O)c1nnn(-c2cc(OC)ccc2OC)c1C | 73% | Not Active | 118% |  |
| CCC[C@@H](C)Oc1ccc(C(C)(C)C)cc1NC(=O)c1nnn(-c2cc(OC)ccc2OC)c1C | 81% | Not Active | 91% |  |
| COc1ccc(OC)c(-n2nnc(C(=O)Nc3cc(B4OC(C)(C)C(C)(C)O4)cc(C(C)(C)C)c3)c2C)c1 | 67% | Not Active | 138% | inhibition at 24 h, 10 µM (PXR (NR1I2) [6]): 104% |
| CCCCOc1ccc(C(C)(C)C)cc1NC(=O)c1nnn(-c2cc(OC)ccc2C)c1C | 10% |  |  | EC50 [2]: 1.66 µM; activity at 24 h, 10 µM [3]: 16%; INH [4]: Not Active; inhibition (INH) [5]: Not Active |
| CCCCOc1ccc(NC(=O)c2nnn(-c3cc(OC)ccc3OC)c2C)cc1C(C)(C)C |  |  | 73% | inhibition (INH) [10]: Not Active |
